This note sets out measurements from US20240101561A1, “NOVEL TETRAZOLES” (Boehringer Ingelheim International GmbH, priority 2019, published 2024).

Series [1] can be described thus: Assay B: Microsomal clearance. The series is classed as in vitro ADME, human. The conditions noted are these: pooled liver microsomes, 1 μM test compound, 37° C., NADPH. As to the method: Assay B: Microsomal Clearance:
The metabolic degradation of the test compound is assayed at 37° C. with pooled liver microsomes. The final incubation volume of 100 μl per time point contains TRIS buffer pH 7.6 at RT (0.1 M), magnesium chloride (5 mM), microsomal protein (1 mg/ml) and the test compound at a final concentration of 1 μM.
Following a short preincubation period at 37° C., the reactions are initiated by addition of beta-nicotinamide adenine dinucleotide phosphate, reduced form (NADPH, 1 mM) and terminated by transferring an aliquot into solvent after different time points (0, 5, 15, 30, 60 min). Additionally, the NADPH-independent degradation is monitored in incubations without NADPH, terminated at the last time point. The [%] remaining test compound after NADPH independent incubation is reflected by the parameter c(control) (metabolic stability). The quenched incubations are pelleted by centrifugation (10000 g, 5 min).
An aliquot of the supernatant is assayed by LC-MS/MS for the amount of parent compound. The half-life (t½ INVITRO) is determined by the slope of the semilogarithmic plot of the concentration-time profile.
The intrinsic clearance (CL_[…]) is calculated by considering the amount of protein in the incubation:
CL_[…] [μl/min/mg protein]=(Ln 2/(half-life [min]*protein content [mg/ml]))*1000
CL_[…]_INVIVO [ml/min/kg]=(CL_[…] [μL/min/mg protein]×MPPGL [mg protein/g liver]×liver factor [g/kg bodyweight])/1000
In general terms: Liver microsomes are a subcellular fraction often used to study metabolism.

Series [2] is described as follows: Assay C: Hepatocyte clearance. The format is in vitro ADME, human. The settings on record: cryopreserved hepatocyte suspension, incubated six hours. As to the method: Assay C: Hepatocyte Clearance
The metabolic degradation of the test compound is assayed in a hepatocyte suspension. Hepatocytes (cryopreserved) are incubated in. Dulbecco's modified eagle medium (supplemented with 3.5 μg glucagon/500 mL, 2.5 mg insulin/500 mL and 3.75 mg/500 mL hydrocortison) containing 5% or 50% species serum.
Following a 30 min preincubation in an incubator (37° C., 10% CO2) 5 μl of test compound solution (80 μM; from 2 mM in DMSO stock solution diluted 1:25 with medium) are added into 395 μl hepatocyte suspension (cell density in the range 0.25-5 Mio cells/mL depending on the species, typically 1 Mio cells/mL; final concentration of test compound final DMSO concentration 0.05%).
The cells are incubated for six hours (incubator, orbital shaker) and samples (25 μl) are taken at 0, 0.5, 1, 2, 4 and 6 hours. Samples are transferred into acetonitrile and pelleted by centrifugation (5 min). The supernatant is transferred to a new 96-deepwell plate, evaporated under nitrogen and resuspended.
Decline of Parent Compound is Analyzed by HPLC-MS/MS
CLint is calculated as follows CL_[…]=Dose/AUC=(C0/CD)/(AUD+clast/k)×1000/60. C0: initial concentration in the incubation [μM], CD: cell density of vital cells [10e6cells/mL], AUD: area under the data [μM×h], clast: concentration of last data point [μM], k: slope of the regression line for parent decline [h−1].
The calculated in vitro hepatic intrinsic clearance can be scaled up to the intrinsic in vivo hepatic Clearance and used to predict hepatic in vivo blood clearance (CL) by the use of a liver model (well stirred model).
CL_[…]_INVIVO [ml/min/kg]=(CL_[…] [μL/min/10e6cells]×hepatocellularity[10e6cells/g liver]×liver factor [g/kg bodyweight])/1000
CL [ml/min/kg]=CL_[…]_INVIVO [ml/min/kg]×hepatic blood flow [ml/min/kg]/(CL_[…]_INVIVO [ml/min/kg]+hepatic blood flow [ml/min/kg])

Series [3] concerns the target human TRPA1 ion channel (Homo sapiens (Human), UniProt O75762). In words: Assay A: TRPA1 cell assay (FLIPR, AITC-induced intracellular calcium). The format is cell-based. The settings on record: HEK293 cells over-expressing human TRPA1; AITC 10 μM agonist; FLIPRtetra; read-out: hTRPA1 IC50. As to the method: A human HEK293 cell line over-expressing the human TRPA1 ion channel (Perkin Elmer, Product No. AX-004-PCL) was used as a test system for compound efficacy and potency.
Compound activity was determined by measuring the effect of compounds on intracellular calcium concentration induced by AITC (Allylisothiocyanat) agonism in a FLIPRtetra system (Molecular Devices).
The cells were obtained as frozen cells in cryo-vials and stored until use at −150° C. Cells were grown in culture medium (MEM/EBSS medium with 10% FCS and 0.4 mg/ML Geneticin). […] For sub-culturing cells were detached from flasks by Versene. At the day before the assay, cells were detached, washed twice with medium (MEM/EBSS medium with 10% FCS) and 20000 cells in 20 μl/well were seeded to Poly D-Lysin biocoated 384-well plates (black, clear bottom, Cat.356697) from Corning. Plates were incubated for 24 hours at 37° C./5% CO2 before use in the assay.
The test compounds were dissolved in 100% DMSO at a concentration of 10 mM and in a first step diluted in DMSO to a concentration of 5 mM, followed by serial dilution steps in 100% DMSO. Dilution factor and number of dilution steps may vary according to needs. Typically 8 different concentrations by 1:5 dilutions were prepared, further intermediate dilutions (1:20) of the substances were carried out with HBSS/HEPES buffer (1×HEPES,Cat.14065 from Gibco, 20 mM HEPES, Cat. 83264 from SIGMA, 0.1% BSA Cat.11926 from Invitrogen, pH 7,4
At the assay day cells were washed 3× with assay puffer, 20 μL buffer remained in the wells after washing. 10 μL Ca6 kit (Cat.R8191 MolecularDevices) loading buffer in HBSS/HEPES was added to the cells and the plates were incubated with lid for 120 minutes at 37°/5% CO2. 10 μL of compound or controls in HBSS/HEPES buffer/5% DMSO from the intermediate dilution plate were carefully added to the wells. […] Finally 10 μL of the agonist AITC 50 μM dissolved in HBSS/HEPES buffer/0,05% DMSO (final concentration 10 μM) was added to the wells followed by an additional read on the FLIPRtetra device for 10 minutes. The area under the signal curve (AUC) after AITC addition was used for IC50/% inhibition calculations
Data Evaluation and Calculation:
Each assay microtiter plate contained wells with vehicle (1% DMSO) controls instead of compound as controls for AITC induced luminescence (100% CTL; high controls) and wells with vehicle controls without AITC as controls for non-specific changes in luminescence (0% CTL; low controls).
The analysis of the data was performed by the calculation of the area under signal curve of the individual wells. Based on this values the % value for the measurement of each substance concentration was calculated (AUC(sample)−AUC(low))*100/(AUC(high)−AUC(low)) using MegaLab software (in house development). The IC50 values were calculated from the % control values using MegaLab software. Calculation: [y=(a−d)/(1+(x/c){circle around ( )}b)+d], a=low value, d=high value; x=conc M; c=IC50 M; b=hill; y=ctrl
(Calcium flux is commonly read through the fluorescence of an indicator in the cells.)

Series [4] can be described thus: Assay D: Metabolism in human hepatocytes in vitro. The format is in vitro ADME. The settings on record: primary human hepatocytes, 10 μM test compound, up to six hours. On the procedure: Assay D: Metabolism in Human Hepatocytes In Vitro
The metabolic pathway of a test compound is investigated using primary human hepatocytes in suspension.
Following a 30 min preincubation in a cell culture incubator (37° C., 10% CO2), test compound solution is spiked into the hepatocyte suspension to obtain a final cell density of 1.0*10^6 to 4.0*10^6 cells/ml (depending on the metabolic turnover rate of the compound observed with primary human hepatocytes), a final test compound concentration of 10 μM, and a final DMSO concentration of 0.05%.
The cells are incubated for six hours in a cell culture incubator on a horizontal shaker, and samples are removed from the incubation after 0, 0.5, 1, 2, 4 or 6 hours, depending on the metabolic turnover rate. Samples are quenched with acetonitrile and pelleted by centrifugation. The supernatant is transferred to a 96-deepwell plate, evaporated under nitrogen and resuspended prior to bioanalysis by liquid chromatography-high resolution mass spectrometry for identification of putative metabolites.

Chain of human TRPA1 ion channel (O75762 whole entry): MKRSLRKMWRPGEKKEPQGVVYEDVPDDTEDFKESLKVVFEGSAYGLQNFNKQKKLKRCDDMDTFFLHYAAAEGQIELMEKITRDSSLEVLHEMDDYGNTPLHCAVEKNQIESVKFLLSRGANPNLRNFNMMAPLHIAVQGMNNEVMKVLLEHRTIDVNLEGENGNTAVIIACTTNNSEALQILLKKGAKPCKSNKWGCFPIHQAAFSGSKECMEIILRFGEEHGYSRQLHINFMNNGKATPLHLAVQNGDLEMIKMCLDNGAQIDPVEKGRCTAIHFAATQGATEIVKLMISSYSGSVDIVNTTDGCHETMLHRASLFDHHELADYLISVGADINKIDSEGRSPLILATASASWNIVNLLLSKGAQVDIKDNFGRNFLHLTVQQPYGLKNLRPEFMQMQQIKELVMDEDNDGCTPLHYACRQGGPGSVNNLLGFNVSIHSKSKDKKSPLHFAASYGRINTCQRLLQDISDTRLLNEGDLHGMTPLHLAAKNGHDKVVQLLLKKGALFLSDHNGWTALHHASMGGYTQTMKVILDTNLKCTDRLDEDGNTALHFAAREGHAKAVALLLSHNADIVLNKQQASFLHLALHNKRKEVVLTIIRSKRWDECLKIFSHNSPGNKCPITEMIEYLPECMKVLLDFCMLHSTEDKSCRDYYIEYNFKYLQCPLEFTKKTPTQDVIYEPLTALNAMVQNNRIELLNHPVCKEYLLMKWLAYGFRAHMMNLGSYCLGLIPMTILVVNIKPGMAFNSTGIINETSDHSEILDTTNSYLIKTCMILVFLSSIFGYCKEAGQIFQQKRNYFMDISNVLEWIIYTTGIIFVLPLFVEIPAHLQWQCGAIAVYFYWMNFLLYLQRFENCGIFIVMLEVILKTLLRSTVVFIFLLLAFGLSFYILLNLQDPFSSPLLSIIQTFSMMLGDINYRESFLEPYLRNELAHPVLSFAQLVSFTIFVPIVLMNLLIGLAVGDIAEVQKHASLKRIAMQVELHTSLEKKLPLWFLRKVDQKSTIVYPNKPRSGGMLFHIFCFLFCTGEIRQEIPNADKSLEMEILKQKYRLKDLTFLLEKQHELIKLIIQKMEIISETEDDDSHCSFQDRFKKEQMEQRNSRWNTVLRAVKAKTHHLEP

As a reminder, the IC50 is the concentration needed to halve the response being measured. Turning to `Cn1nnc2ncn(Cc3nnn(C[C@H](O)c4ccc(Cl)cc4)n3)c(=O)c21` [Example 1], the “human LM [% Qh]” value in series [1] is recorded as less than 23 % Qh. Also, the “human Hepatocytes [% Qh]” value in series [2] is less than 4 % Qh. Also, the IC50 in series [3] amounted to 35 nM.
As for `Cn1cnc2nc(N)n(Cc3nnn(C[C@H](O)c4ccc(Cl)cc4)n3)c(=O)c21` [Example 2], in series [3], the concentration for half-maximal inhibition (IC50) stood at 288 nM.
In the case of `Cc1ccn2ncn(Cc3nnn(C[C@H](O)c4ccc(Cl)cc4)n3)c(=O)c12` [Example 3], in series [1], the “human LM [% Qh]” value is on record as more than 89 % Qh. Further, in series [3], the IC50 amounted to 75 nM.
For `O=c1c2scnc2ncn1Cc1nnn(C[C@H](O)c2ccc(Cl)cc2)n1` [Example 4], the “human LM [% Qh]” value in series [1] was less than 23 % Qh. Further, the concentration for half-maximal inhibition (IC50) in series [3] stood at 197 nM.
Take `Cc1nn(C)c2ncn(Cc3nnn(C[C@H](O)c4ccc(Cl)cc4)n3)c(=O)c12` [Example 5]: the “human LM [% Qh]” value in series [1] is given as less than 23 % Qh. In series [2], the “human Hepatocytes [% Qh]” value is 31 % Qh. In series [4], the “Major metabolite observed: mechanism (Metabolite M1)” value was “N-Demethylation”. Besides, the IC50 in series [3] worked out at 27 nM.
As to `Cn1cnc2cnn(Cc3nnn(C[C@H](O)c4ccc(Cl)cc4)n3)c(=O)c21` [Example 7], the “human LM [% Qh]” value in series [1] is listed as less than 23 % Qh. Besides, the half-inhibitory concentration (IC50) in series [3] was 275 nM.
As for `Cc1ncn2ncn(Cc3nnn(C[C@H](O)c4ccc(Cl)cc4)n3)c(=O)c12` [Example 8], the “human LM [% Qh]” value in series [1] is on record as less than 23 % Qh. Further, the “human Hepatocytes [% Qh]” value in series [2] worked out at 22 % Qh. Moreover, the concentration for half-maximal inhibition (IC50) in series [3] was determined as 27 nM.
With `Cn1cnc2ncn(Cc3nnn(C[C@H](O)c4ccc(Cl)cc4)n3)c(=O)c21` [Example 9, 1-({2-[(2R)-2-(4-chlorophenyl)-2-hydroxyethyl]-2H-1,2,3,4-tetrazol-5-yl}methyl)-7-methyl-6,7-dihydro-1H-purin-6-one], in series [1], the “human LM [% Qh]” value is recorded as less than 23 % Qh. Moreover, in series [2], the “human Hepatocytes [% Qh]” value is given as less than 4 % Qh. For the same compound, in series [3], the IC50 came to 72 nM.
